Measurements: patent publication US10307353B2, “1-phenylmono- or -polyhydroxypropane compounds, compositions and cosmetic uses thereof” (L'OREAL, priority 2015, dated 2019)

System: AMPK (phospho-AMPK Thr-172)
Assay: Level of expression of p-AMPK (Thr-172) in normal human epidermal keratinocytes, Western blotting
Format: cell-based
Details: for p-AMPK/GAPDH ratio relative to the control (100%): 48 hours incubation; for p-AMPK/AMPK ratio relative to the control (100%): 18 hours incubation
Experimental: Normal human epidermal keratinocytes are seeded at 180 000 cells per well and cultured in SFM culture medium (supplier Gibco) supplemented with 0.25 ng/ml EGF, 25 μg/ml of pituitary extract and 25 μg/ml gentamicin, up to confluence, and incubated in a humid oven at 37° C. and 5% CO2. The culture medium was then replaced with test medium (SFM (Gibco) supplemented with 25 μg/ml gentamicin) containing or not containing (control) the test compounds, or the references (AICAR—(5-amino-4-imidazole carboxamide riboside) at 500 μM). The cells were then incubated for 18 or 48 hours. The level of expression of p-AMPK was analyzed by Western blotting. At the end of the incubation, the proteins were extracted and quantified and then separated by electrophoresis on 10% polyacrylamide gel and then transferred onto a nitrocellulose membrane. […] Between each successive revelation, the antibodies were detached using a “stripping” buffer. The images were acquired with a Fuji LAS 3000 chemiluminescence scanner (Fujifilm) and the densitometric analyses were performed using the Multigauge software (Fujifilm). An increase in the phosphorylated form of AMPK (active form of the enzyme) relative to the control is evaluated in this test. Results Expressed in the form of the p-AMPK/GAPDH ratio relative to the control (100%): […]

| Compound | p-AMPK/GAPDH ratio relative to the control (100%) (1 μM) [%] | p-AMPK/GAPDH ratio relative to the control (100%) (10 μM) [%] | p-AMPK/GAPDH ratio relative to the control (100%) (100 μM) [%] | p-AMPK/AMPK ratio relative to the control (100%) (500 μM) | p-AMPK/GAPDH ratio relative to the control (100%) (500 μM) [%] |
| --- | --- | --- | --- | --- | --- |
| COc1cc(CC(O)CO)ccc1O (stereo not drawn) [Compound 5] | 116 ± 17 | 149 ± 25 | 136 ± 14 |  |  |
| COc1cc(CC(C)O)ccc1O (stereo not drawn) [Compound 1] |  |  |  | 132% ± 11% |  |
| NC(=O)c1ncn([C@@H]2O[C@H](CO)[C@@H](O)[C@H]2O)c1N [AICAR, 5-amino-4-imidazole carboxamide riboside, reference compound] |  |  |  | 177% ± 31% | 279 ± 96 |
